# Entries after “also recorded” stand apart in the source; their conditions may differ.
# Tests used:
# PC3 xenograft tumors = test: PC3 xenograft tumor growth; format: in vivo, mice
# Description: Xenograft study: Six- to 8-week-old female athymic nude nu/nu mice were purchased from Charles River Laboratories and maintained in Genentech's conventional animal facility. Mice were injected in the right flank with 5˜7.5×10^6 cells resuspended in 200 μl Hank's Balanced Salt Solution (Invitrogen). When tumors reached a mean volume of 100˜300 mm^3 the mice with similarly-sized tumors were grouped into treatment cohorts. […] Amber-colored water bottles were used and were changed 3 times per week. […] Tumors were measured with calipers and mice weighed twice per week. Mice whose tumors reached 2000 mm^3 or lost more than 20% body weight were euthanized. Between 8˜10 mice were used for each treatment group. Statistical significance was analyzed using the JMP software (SAS Institute, Inc.).
# We next examined the effect of Akt KDs on the ability of PC3 cells to maintain the growth of established tumors in vivo.
# PC3 cells [1] = test: Autophagy markers in PC3 cells (EM AVs, GFP-LC3, LC3-II/LC3-I, MDC, AO); format: cell-based, human
# Description: (§1) Western blot analysis, immunofluorescence, 1HC and TUNEL assay: For Western blot analysis, total protein lysates were subjected to SDS-PAGE and transferred to nitrocellulose. […] Detection and quantification were performed using an Odyssey infrared scanner (LICOR) using the manufacturer's software. For immunofluorescence staining, cells were fixed in 3% paraformaldehyde and permeabilized with 0.01% digitonin in PBS, followed by a rabbit polyclonal anti-LC3 (Abgent) primary antibody detected with a cy3-conjugated anti-rabbit secondary antibody (Jackson Immunoresearch). For IHC, formalin-fixed, paraffin-embedded specimens were collected. 5-μm-thick paraffin-embedded sections were stained using an anti-Ki-67 (MIB-1, DakoCytomation) antibody with the Dako ARK kit (Dako Corporation). Tissues were counterstained with haematoxylin, dehydrated, and mounted. In all cases, antigen retrieval was performed with the Dako Target Retrieval Kit as per manufacturer's instructions. For TUNEL assay, formalin-fixed, paraffin-embedded sections were stained using an in situ cell death detection kit (POD; Roche Diagnostic) according to the manufacturer's instructions.
# Ultrathin sections were stained with uranyl acetate and lead citrate. Numbers of AV were counted on systematically sampled cytoplasmic areas of 4.5 μm^2 (n≧64 per condition). The percent AV area was measured by means of a square mesh grid laid over ≧5 sets of systematically sampled micrographs with each set covering a cytoplasmic area ≧80 μm^2. The average percent of apoptotic nuclei in tumor tissues was calculated from the number of apoptotic nuclei in 3 to 4 sets of 100 systematically counted tumor cell nuclei.
# Multispectral imaging flow cytometry: Cells treated with various agents were stained with Acridine Orange and analyzed by the ImageStream system (Amnis Corporation, Seattle, Wash.) using the IDEAS image analysis program. The DNA AOGreen image and the vacuolar AO Red image were first compensated into separate channels, and then the percentage of apoptotic/anucleate cells (based on AO nuclear morphology and intensity) and vacuolated cells (AO Red+) were quantified. […] AORed Intensity is plotted on the second histogram with an arbitrary gate (R5) drawn to include events with the brightest AO Red intensity.
# PC3 cells [2] = test: Time-lapse microscopy of PC3 cells; format: cell-based, human; conditions: 10 μM, 5% FBS, 3 d
# Description: Time-lapse video microscopy: Cells cultured in 24-well plates were imaged on an Olympus IX81 inverted microscope under environmental control (37° C. and 5% CO2) for 3 days. Imaging started 6 hours after the addition of the compounds and was taken at 1-hour intervals.
# PC3 cells [3] = test: Immunoblot of LAMP1, cathepsin D and p62 in PC3 cells; format: cell-based, human
# Source text: as §1, with “nitrocellulose. Antibodies used were: anti-Akt1, anti-Akt2, anti-Akt3, anti-total-Akt, anti-p-Akt (Ser473), anti-p-Akt (Thr308), anti-p-S6 (Ser235/236), anti-PARP and anti-cleaved caspase-3 (Cell Signaling Technology); anti-p-PRAS40 (Invitrogen); anti-p27^Kip1 (Santa Cruz Biotechnology); anti-LC3 (Novus); anti-LAMP2 and anti-Cathepsin D (BD Biosciences); and anti-GAPDH (Advanced Immunochemical Inc.).” for “nitrocellulose.”
# Because autophagy is a key function of the lysosomal compartment (Terman, A., B. Gustafsson, and U. T. Brunk, (2006), The lysosomal-mitochondrial axis theory of postmitotic aging and cell death. Chem Biol Interact. 163:29-37), we examined the lysosomal marker LAMPI and cathepsin D, the predominant lysosomal aspartic protease, by immunoblotting (FIG. 6, B and C). […] Cathepsin D is synthesized as a 43-kD preprocathepsin D that is cleaved cotranslationally and glycosylated to form a 46-kD procathepsin D, which is targeted to lysosomes yielding an intermediate that is further cleaved into a mature enzyme consisting of a 15-kD light chain and a 28-kD heavy chain.
# PC3 cells [4] = test: Mitochondrial membrane potential (MitoPT dye) in PC3 cells; format: cell-based, human; conditions: 0.5% FBS
# Description: FIG. 21. […] Images at 48 h are shown. […] Merged images between red and green channels are also shown (MitoPT-M). Scale bar: 20 μm. (B) Percentage of cells showing red punctate stains and diffuse green stains from treatments described in (A). >86 cells from two random fields of fluorescent images of each treatment were counted. Error bars represent standard deviations between the two fields. […] Total fluorescence intensity from all cells was collected using the Isocyte (Blueshift Biotechnologies), a laser scanning imager. Green fluorescence intensity is collected with a 488 nm laser and a 510-540 nm band pass filter, and normalized to cell number determined by Hoechst staining using a 405 nm laser and a 430-480 nm band pass filter. Error bars, standard deviation between two independent experiments. (D) Representative images of the green ROS signals and bright field (BF) taken under a Nikon TE300 inverted microscope. […] Scale bar: 20 μm.
# Cell Culture and Reagents: The PTEN^−/− and PTEN^+/+ MEFs were maintained as previously described (Sun, H., R. Lesche, D. M. Li, J. Liliental, H. Zhang, J. Gao, N. Gavrilova, B. Mueller, X. Liu, and H. Wu, (1999), PTEN modulates cell cycle progression and cell survival by regulating phosphatidylinositol 3,4,5,-trisphosphate and Akt/protein kinase B signaling pathway. Proc Natl Acad Sci USA. 96:6199-204). The PC3 and U87MG cells were maintained at 37° C. and 5% CO2 in DMEM/Ham's F-12 (1:1) containing 10% tetracycline-free fetal bovine serum. II-4 was from Calbiochem (Akt inhibitor VIII) (Barnett, S. F., D. Defeo-Jones, S. Fu, P. J. Hancock, K. M. Haskell, R. E. Jones, J. A. Kahana, A. M. Kral, K. Leander, L. L. Lee, J. Malinowski, E. M. McAvoy, D. D. Nahas, R. G. Robinson, and H. E. Huber, (2005), Identification and characterization of pleckstrin-homology-domain-dependent and isoenzyme-specific Akt inhibitors. Biochem J. 385:399-408). […] Image-iT LIVE Green Reactive Oxygen Species Detection Kit was purchased from Molecular Probes. MitoPT Mitochondria Permeability Transition Detection Kit was purchased from Immunochemistry Technologies, LLC.
# PC3 cells [5] = test: Mitochondrial superoxide (MitoSOX red) and cellular ROS in PC3 cells; format: cell-based, human
# Description: (B) PC3 cells treated as in A were stained with the Image-iT LIVE green ROS Detection kit and examined by fluorescence microscopy at 24 h. […] (C) Quantification of MitoSOX red and ROS green fluorescence intensities by flow cytometry at 24 h. Cells were treated as in A and B. Error bars represent SEM (n=3).
# Because mitochondria are the primary intracellular source of superoxide (O2^−) generation, we analyzed O2^− production using MitoSOX red, an O2^− indicator that accumulates in the mitochondria as a function of membrane potential and fluoresces upon oxidation and subsequent binding to DNA.
# [6] = Autophagic vacuole accumulation by side scatter (SSC) in a flow cytometer; format: cell-based
# Source text: Inhibitors include 3-phenyl-2-(4-((4-(5-(pyridin-2-yl)-1H-1,2,4-triazol-3-yl)piperidin-1-yl)methyl)phenyl)-1,6-naphthyridin-5(6H)-one (II-3), benzyl 2-(4-(3-ethylureido)phenyl)-4-(1,4-oxazepan-4-yl)-5H-pyrrolo[3,4-d]pyrimidine-6(7H)-carboxylate (III-1); 1-ethyl-3-(4-(4-morpholino-7-(pyrimidin-2-yl)-5,6,7,8-tetrahydropyrido[3,4-d]pyrimidin-2-yl)phenyl)urea (III-2), (R)-1-(44(2-(2-aminopyrimidin-5-yl)-7-methyl-4-morpholinothieno[3,2-d]pyrimidin-6-yl)methyl)piperazin-1-yl)-2-hydroxypropan-1-one (III-3), 4-(2-(1H-indazol-4-yl)-6-((4-(methylsulfonyl)piperazin-1-yl)methyl)thieno[3,2-d]pyrimidin-4-yl)morpholine (III-6), (S)—N-(4-(benzo[d][1,3]dioxol-5-yl)thiazol-2-yl)-N-(3-(2-formylpiperidin-1-yl)propyl)thiophene-2-carboxamide (IV-2) and Rapamycin.
# FIG. 14 depicts CQ (10 μM) increases the number and size of autophagic vacuoles when combined with the various mTOR, PI3K, and Akt inhibitors.
# [7] = Cell death in combination with CQ (FIG. 17); format: cell-based
# [8] = tested on: 537MEL melanoma cell line; test: Autophagy (Acridine Orange) and apoptosis (AnnV/PI) induction with CQ; format: cell-based
# Source text: (§2) FIGS. 32A-B and 34A-B depict data showing correlation between Autophagy induction and apoptosis induction when each compound is combined with CQ at 24 hrs after the given compound treatment measured by Acridine Orange staining in 537MEL melanoma cell line and SKBR3Breast cancer cell line, respectively. Control was DMSO.
# (§3) FIGS. 33A-G and 35A-G show dose response curve of apoptosis induction in 537MEL melanoma and SKBR3Breast cancer cells, respectively, treated with the indicated compound alone or with 10 μM CQ, measured by Annezin V (AnnV) and Propidium iodide (PI) staining.
# [9] = tested on: SKBR3Breast cancer cell line; test: as above; format: cell-based
# Source text: as §2, §3
# [10] = 24 hrs, Acridine Orange staining
structure (smiles),measurement,setting,value
"CCN(CC)CCCC(C)Nc1ccnc2cc(Cl)ccc12 (stereo not shown) [CQ, chloroquine]",tumors with stasis maintained throughout the study,"PC3 xenograft tumors; PC3-shAkt123 xenograft, both Dox and CQ",20%
same,tumors with complete regression,"PC3 xenograft tumors; PC3-shAkt123 xenograft, both Dox and CQ, intraperitoneal",40%
same,"incidence of complete tumor remission, CQ combined with Akt knockdown","PC3 xenograft tumors; mouse, in vivo",significantly increased the incidence of complete tumor remission; also recorded: increased the incidence of complete tumor remissions in vivo
same,"AVO accumulation, agent alone (multispectral imaging flow cytometry)",PC3 cells [1],induced AVO accumulation without significant loss of viability
same,"induction of AV accumulation / autophagy, agent alone",PC3 cells [1],induced accumulation of AVs
same,"cell division and morphology, agent alone",PC3 cells [2],mild decrease in cell division and a gradual accumulation of dark particles in the perinuclear region
same,p62 level,PC3 cells [3],increased the level of p62 both with and without Akti; also recorded: blocked p62 degradation both with and without II-4 treatment
same,"mitochondrial membrane potential, agent alone",PC3 cells [4],did not have a significant effect
same,"MitoSOX fluorescence, agent alone",PC3 cells [5],mild increase in MitoSOX signal
same,"cellular ROS signal, agent alone",PC3 cells [5],little effect on ROS levels
"CS(=O)(=O)N1CCN(Cc2cc3nc(-c4cccc5[nH]ncc45)nc(N4CCOCC4)c3s2)CC1 [III-6, 4-(2-(1H-indazol-4-yl)-6-((4-(methylsulfonyl)piperazin-1-yl)methyl)thieno[3,2-d]pyrimidin-4-yl)morpholine]","autophagic vacuole accumulation (SSC), inhibitor alone",[6],induce increased autophagic vacuole accumulation
same,interaction with CQ on cell death,[7],synergize with CQ to accelerate cell death
"O=C(NOC[C@H](O)CO)c1ccc(F)c(F)c1Nc1ccc(I)cc1F [VII, (R)—N-(2,3-dihydroxypropoxy)-3,4-difluoro-2-(2-fluoro-4-iodophenylamino)benzamide]",apoptosis induction when combined with CQ,"[8]; 10 μM CQ, AnnV and PI staining",no synergistic apoptosis induction is shown when combined with CQ; also recorded: CQ does not induce apoptosis in cancer cells
same,autophagy induction,[8]; [10],does not induce an increase in autophagy
same,apoptosis induction when combined with CQ,"[9]; 10 μM CQ, AnnV and PI staining",no synergistic apoptosis induction is shown when combined with CQ; also recorded: CQ does not induce apoptosis in cancer cells
same,autophagy induction,[9]; [10],does not induce an increase in autophagy

# Reference: patent US20140004209A1, “AUTOPHAGY INDUCER AND INHIBITOR COMBINATION THERAPY FOR THE TREATMENT OF NEOPLASMS” (GENENTECH, INC., priority 2010, published 2014)
